PMC13242511, “Disrupting Notch signalling by a small molecule inhibiting dihydroorotate dehydrogenase activity” (Scientific Reports, 2026)
Values joined by “and” are separate entries in the source; they are usually repeats but may differ in a detail not shown here. Equal values may be shown once. Read-outs that look alike come from different tables or passages of the source. Each block holds one compound with its values, some of them ahead of it.

Columns and labels:
[1] = molecular target: γ-secretase complex (Homo sapiens, UniProt P49768); test: APP-C99 counter assay (GSI reporter assay); assay type: cell-based; parameters: AUC APP: scale not given here; settings: for AUC APP: area under the 14-point dose-response curve, replicates averaged
Method: To this end, we used a previously established reporter gene-based GSI assay (APP-C99) (Fig. 3A), which measures γ-secretase activity through cleavage of amyloid precursor protein (APP), another protein processed by the γ-secretase complex[24]
Plasmids for APP and luciferase are described in[24] and the renilla plasmid described above generated for this project was used to normalize firefly values. 24 h post transfection cells were seeded on compound plates and cells were cultivated for 24 h before luciferase signals were read, as described.
Two-fold concentrations of compounds were diluted in 10 µl cell culture medium and brought to one-fold by seeding 10 µl containing 4000 cells of the respective cell type on each well of a 384-well plate, as described above. Analogous to the previous assays, all plates contained one DMSO and DAPT control column with the Notch reporter cell line (#A1-11) and a DMSO only and Notch inhibitor control plate was read before the measuring the screening plates. In addition, DAPT and DMSO were spotted in a dose response fashion, and a minimum of four replicates were read. Dose-responses of compounds were recorded in triplicates for each concentration reading out the dual luciferase reporters, as described above. Dose response assays were read together in one session. To measure compound effects, the different assays dose–response curves were fitted using the log(inhibitor) vs. response – Variable slope (model: Y = Bottom + (Top–Bottom)/(1 + 10^((LogIC50-X)*HillSlope)) equation.
A DMSO plate was read before measuring luciferase activity of compound spotted plates. APP firefly luciferase reporter assays were read with a signal integration time of 0.1 s, instead of 0.5 s used for the Notch reporter to reduce signal overlap between wells. […] The area-under-the-curve (AUC) was calculated on dose–response curves using Graphpad Prism.

[2] = tested on: Notch signalling; test: Notch reporter assay (12xCSL firefly luciferase / renilla luciferase, HEK293T Notch1ΔE reporter cell line clone #A1-11); assay type: cell-based; parameters: AUC Notch: scale not given here; settings: for Bottom (Emax): Emax indicated independent from assay constraints, in % (unit assumed); for AUC Notch: area under the 14-point dose-response curve
Description: To identify novel Notch inhibitors in an unbiased manner, we generated a novel Notch reporter construct, which records the level of Notch signalling immediately downstream of receptor activation rather than further downstream in the signalling cascade, for example at the level of Hes and Hey proteins (Fig. 1B). […] The reporter construct carries piggy-bac sequences at both ends of the promoter-reporter cassette as well as cSH4 insulator elements to reduce transcriptional noise[21] and was transfected into HEK293T cells. To achieve a robust level of Notch receptor activity in the HEK293T reporter cell line and to confine the search for inhibitors to compounds affecting the receptor function and eliminating the need for ligand activation, a truncated ligand-independent version of the Notch1 receptor, mimicking an S2-cleaved Notch1 receptor (Notch1ΔE) and spontaneously activated by S3-cleavage[22] (Fig. 1C) was introduced into the cell line carrying the reporter construct (Fig. 1D). In addition, an HSV-TK-renilla luciferase plasmid was introduced into the cell line as an internal control for normalisation of the reporter expression (Fig. 1D).
A de novo Notch reporter construct, composed of six dimeric CSL binding sites linked to a basic b-globin promoter and followed by a firefly luciferase gene and a PEST degradation domain was synthesised (GeneArt). The construct was stably introduced into HEK293T cells, and zeocin (0.1 mg/ml) or Puromycin (0.05 mg/ml (ThermoFisher, cat #R25001, #A1113803) were used as selection markers. A clonal cell line (clone #A1) with robust renilla expression and enhanced firefly luciferase expression upon transient transfection of Notch1 ICD or Notch1ΔE constructs was selected, and a UB6 promoter-Notch1DE construct was stably introduced into this cell line using Blasticidin (0.1 mg/ml; ThermoFisher, cat #A1113903) as a selection marker. Stable cell lines were generated by serial dilution and only clonal colonies were selected for further evaluation. To measure luciferase reporter activity, cells were washed in cold PBS, detached, and collected in pre-warmed cell culture medium and centrifugated for five min at 200xg. The cell pellet was resuspended in medium, cells were counted, and 4,000 cells were seeded in each well of a white 384 well plate (Corning #3670) in 20 µl medium containing either DMSO or the GSI DAPT (N-[N-(3,5-Difluorophenacetyl)-L-alanyl]-S-phenylglycine t-butyl ester, Sigma-Aldrich, cat #565784-M) and incubated for 24 h. The efficacy of the reporter gene system was determined by monitoring the level of luciferase activation in the absence or presence of different amounts of DAPT in several cell clones. Luciferase activity was assessed using the dual-GLO luciferase detection kit from Promega (cat # E2920), following the manufacturer’s instructions. A minimum of two technical replicates were measured per clone using a SpectraMaxi3 plate reader (Molecular Devices). Reporter activity of different clones and in response to DAPT was assessed by normalising firefly (Notch activity) to renilla luciferase signals. Normalised signals of individual clones cultivated in DMSO were then compared to corresponding signals generated with DAPT-treated cells. The cell clone with the strongest signal to control ratio (DMSO to DAPT) was then selected for further exploration (clone #A1-11).
37,966 compounds were spotted by the compound center at SciLifeLab (https://www.scilifelab.se/) on a total of 120 plates (Greiner #781080) at a fixed concentration of 10 µM and the screening process spanned five consecutive sessions. The layout of each plate contained one column for DMSO and one for DAPT controls to determine the quality and reliability of the data. DAPT controls were spotted at 10 µM and DMSO was spotted in an equimolar volume. In addition, plates spotted with only DMSO were utilized to investigate the impact of plate effects before and after each session. […]

[3] = 9p dose response, AUCs averaged when replicates available
[4] = 9p dose response, log10 of averaged IC50
[5] = 14p dose response, AUCs averaged when replicates available
[6] = overview in comparison to compound C, Supplemental Fig. 9
[7] = 14p APP assay DR, bottom constrained to Emax of positive control LY-411575
[8] = Homo sapiens, HEK-293T, 14p Notch assay DR, bottom constrained to Emax of positive control DAPT, read-out: approximated IC50
[9] = Homo sapiens, HEK-293T, 14p Notch assay DR, log10 value, bottom constrained to Emax of positive control DAPT, read-out: approximated LogIC50 (converted)

Compound: NC(=O)[C@@H](CC1CC1)[C@@H](CCC(F)(F)F)C(=O)N[C@H]1N=C(c2ccccc2)c2cccc(F)c2NC1=O [BMS-983970, reference compound]
Hill-Slope 9p APP counter assay averaged ([1]; 9p dose response): -1.6
AUC 9p APP-counter assay [1, 3]: 2.41E+02
IC50 ([1]; 9p dose response, averaged, read-out: 9p APP counter assay averaged IC50s): 22 nM
9p APP counter assay averaged IC50s (log) [1, 4]: -7.7
IC50 ([1]; 9p dose response, read-out: approximated IC50s 9p APP counter assay): 22 nM
IC50 ([1]; 14-point, unit inferred, some fits outside of tested concentration range, read-out: approximated IC50s 14p APP-counter assay): 400 nM
Bottom (Emax) ([1]; 14p APP assay DR, Emax indicated independent from assay constraints): 45.9 and 48.3
IC50 ([1]; 14p APP assay DR, Notch inhibitor controls, no bottom constraint named, read-out: approximated IC50): 44 nM and 70 nM
AUC. 14p APP-counter assay [1, 5]: 4.87E+02
IC50 ([1]; 14p dose response, averaged over replicates, read-out: 14p APP counter assay averaged IC50s): 57 nM
AUC APP [1]: 486.6
APP assay [1, 6]: higher potency
IC50 ([2]; 9p dose response, single replicates, read-out: approximated IC50s 9p Notch reporter assay): 1.2 nM
AUC 9p Notch reporter assay [2, 3]: 2.16E+02
IC50 ([2]; 9p dose response, averaged over replicates, read-out: 9p Notch reporter assay averaged IC50s): 1.2 nM
9p Notch reporter assay averaged IC50s (log) [2, 4]: -8.9
IC50 ([2]; 14-point, unit inferred, replicates averaged, read-out: approxiated IC50s 14p Notch reporter assay): 3.6 nM
Bottom (Emax) ([2]; 14p Notch assay DR): 49.6 and 50.5 and 62.5
IC50 ([2]; 14p Notch assay DR, Notch inhibitor controls, no bottom constraint named, read-out: approximated IC50): 3.6 nM and ~2.3 nM
IC50 ([2]; 14p Notch assay DR, averaged when replicate measurements were available, read-out: averaged IC50s): 3.6 nM
approximated LogIC50 [M] ([2]; 14p Notch assay DR, log10 value, Notch inhibitor controls, no bottom constraint named): -8.5 M
IC50 ([2]; 14p dose response, single replicates, read-out: approximated IC50s 14p Notch reporter assay): 3.6 nM and 3.5 nM
AUC 14p Notch reporter assay [2, 5]: 4.10E+02
IC50 ([2]; 14p dose response, averaged over replicates, read-out: 14p Notch reporter assay averaged IC50s): 3.6 nM
14p Notch reporter assay averaged IC50s (log) ([2]; 14p dose response, log10 of averaged IC50): -8.4
AUC Notch ([2]; replicates averaged): 410.0
Notch assay [2, 6]: higher potency

Compound: Cc1cc(O)n(-c2nc3ccccc3s2)n1 [CBK007453]
Hill-slope [1, 7]: -0.00928
AUC APP [1]: 674.5
Bottom (Emax) ([2]; 14p Notch assay DR): 95.0
IC50 ([2]; Homo sapiens, HEK-293T, 14-point dose-response, Fig. 4, read-out: approximated IC50, Notch reporter assay): > 40000 nM
IC50 [2, 8]: > 40000 nM
IC50 [2, 9]: > 40000 nM
AUC Notch ([2]; replicates averaged): 628.0

Compound: Oc1cc(-c2ccccc2)nn1-c1nc2ccccc2s1 [CBK016481]
Hill-slope [1, 7]: 0.00215
AUC APP [1]: 668.5
approximated IC50, Notch reporter assay ([2]; 14-point dose-response, Fig. 4): Indeterminate
Bottom (Emax) ([2]; 14p Notch assay DR): 98.5
AUC Notch ([2]; replicates averaged): 626.0

Compound: COc1cc(Nc2nc(-c3ccc(F)c(Cl)c3)cn3ccnc23)cc(OC)c1OC [CBK037275]
Hill-slope [1, 7]: -0.9
AUC APP [1]: 479.3
Bottom (Emax) ([2]; 14p Notch assay DR): 90.9
AUC Notch ([2]; replicates averaged): 361.0

Compound: CC(=O)Nc1cccc(-c2cn3ccnc3c(Nc3cccc(OC(F)(F)C(F)F)c3)n2)c1 [CBK037499]
Hill-slope [1, 7]: 0.0127
AUC APP [1]: 508.5
Bottom (Emax) ([2]; 14p Notch assay DR): 77.1
IC50 [2, 8]: > 40000 nM
IC50 [2, 9]: > 40000 nM
AUC Notch ([2]; replicates averaged): 348.0

Compound: COc1ccc(-c2cn3ccnc3c(Nc3cc(OC)c(OC)c(OC)c3)n2)cc1OC [CBK066261]
Hill-slope [1, 7]: 0.0544

Compound: COc1cc(Nc2nc(-c3ccccc3)cn3ccnc23)cc(OC)c1OC [CBK066345]
Hill-slope [1, 7]: 0.0472

Compound: COc1ccc2cc(C(=O)N3Cc4cn(CCO)nc4C3)n(C)c2c1 [CBK306707]
Hill-slope [1, 7]: 0.423

Compound: CCn1ccc(CN(CCOC)C(=O)c2cc3c(Cl)cccc3[nH]2)n1 [CBK306903]
Hill-slope [1, 7]: 3.84e-13
curve fit information [1, 7]: IC50 indeterminate

Compound: O=C(O)c1cccc(-c2noc(-c3ccccc3F)n2)c1 [PTC-124, reference compound]
signal reduced by ([2]; luciferase inhibitor controls in three-dose regimen (1.25, 10 and 25 µM), Supplemental Fig. 2G): 83%

The next lines start with results.

Hill-slope [1, 7]: 0.0705
AUC APP [1]: 553.6
Compound: COC(=O)c1cccc(N2C(=O)c3ccc(Oc4cccc(NC(C)=O)c4)cc3C2=O)c1 [CBK033640]
Bottom (Emax) ([2]; 14p Notch assay DR): 91.5
AUC Notch ([2]; replicates averaged): 399.0

Hill-slope [1, 7]: -0.0365
Compound: O=C(O)c1ccccc1C(=O)N1CCC2(CC1)OCCc1c2[nH]c2ccccc12 [CBK046981]

Hill-slope [1, 7]: -0.0304
Compound: O=C(O)c1cc(Cl)c(Cl)cc1C(=O)N1CCC2(CC1)OCCc1c2[nH]c2ccccc12 [CBK047019]

Hill-slope [1, 7]: 20.5
Compound: COc1ccc2[nH]c3c(c2c1)CCOC31CCN(C(=O)c2cccc3cccc(C(=O)O)c23)CC1 [CBK047020]

Hill-slope [1, 7]: -0.9
Compound: O=C(O)c1cccc2cccc(C(=O)N3CCC4(CC3)OCCc3c4[nH]c4ccccc34)c12 [CBK047027]

Hill-slope [1, 7]: -8.4
Compound: COc1ccc2[nH]c3c(c2c1)CCOC31CCN(C(=O)c2ccccc2C(=O)O)CC1 [CBK047213]

Hill-slope [1, 7]: 0.274
Compound: CC(c1nc(N)nc(Nc2ccccc2)n1)N1CCC(NC(=O)c2ccccc2)CC1 (centres unmarked) [CBK233672]
